Test results reported in article PMC9218685, “Legume Plant Peptides as Sources of Novel Antimicrobial Molecules Against Human Pathogens” (Frontiers in Molecular Biosciences, 2022).
In brackets after ≈: the same amount, converted by molar mass. Ends that are not written are not given here. Peptide text beside a SMILES is read from it.

Tests used:
[1] = tested on: Enterococcus faecalis (ATCC 29212); type: cell-based; details: for Ability to kill E. faecalis: 3 h, ~10^7 log phase bacteria, peptides ≤25 µM; for MBC Enterococcus faecalis: ATCC 29212, 3 h
In short: (§1)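 About 10^7 log-phase bacteria were treated for 3 h in potassium-phosphate buffer (pH 7.4) with 2-fold peptide dilutions from 25 µM downward. MBC was the lowest concentration that completely eliminated viable bacteria.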

[2] = tested on: Escherichia coli (ATCC 8739); type: cell-based; details: ATCC 8739, 3 h
In short: as §1

[3] = tested on: Listeria monocytogenes (ATCC 19111); type: cell-based; details: ATCC 19111, 3 h
In short: as §1

[4] = tested on: Pseudomonas aeruginosa (ATCC 27853); type: cell-based; details: ATCC 27853, 3 h
In short: as §1

[5] = tested on: Salmonella enterica (ATCC 13076); type: cell-based; details: ATCC 13076, 3 h
In short: as §1

[6] = tested on: E. coli, S. enteritidis, P. aeruginosa, L. monocytogenes, S. aureus, E. faecalis, K. pneumoniae and A. baumannii; test: Antimicrobial activity assay, spectrum over the eight tested pathogenic bacteria; type: cell-based; details: 3 h treatment of ~10^7 log phase bacteria, peptides 25 to 0.8 µM; active = MBC ≤25 µM
In short: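 Log-phase bacteria (~10^7) treated 3 h with NCR peptides in potassium-phosphate buffer pH 7.4, two-fold dilutions from 25 µM to 0.8 µM. MBC is the lowest concentration completely eliminating viable bacteria. Strains: E. faecalis ATCC 29212, S. aureus HNCMO112011, L. monocytogenes ATCC 19111, P. aeruginosa ATCC 27853, E. coli ATCC 8739, S. enterica ATCC 13076, K. pneumoniae NCTC 13440, A. baumannii ATCC 17978.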

[7] = peptides carrying a StrepII tag at their C-terminus, 25 µM, 10% Fetal Bovine Serum, 37°C, 18 h; StrepTactin-HRP Western blot
Method: Peptides were incubated in 10% Fetal Bovine Serum at 37°C for 18 h. Full length NCRs were used at 25 μM, while short derivatives at 50 μM. The serum proteins and peptides were separated by sodium dodecyl sulfate-polyacrylamide gel electrophoresis (SDS-PAGE, 12% bis-tris gel, MES buffer pH 7.3) and visualized by Coomassie blue staining. NCRs with StrepII tag at their C-terminus were also detected by Western blot analysis using Precision Protein StrepTactin-HRP conjugate antibody (BioRad) and Clarity Western ECL (BioRad) for chemiluminescence detection according to the supplier.
FIGURE S3 Serum stability assay. Full length NCRs, StrepII-tagged NCR peptides (25 µM) and shorter NCR derivatives (50 µM) were incubated in water or in 10% Fetal Bovine Serum (FBS) for 18 hours at 37°C. Serum proteins and the peptides were separated by SDS-Page and visualized by Coomassie blue staining or in the case of StrepII-tagged NCRs also with Western blot. […]

[8] = quoted in the Introduction; ref Kim et al., 2015; cited from earlier work
Source text: In the Inverted Repeat Lacking Clade (IRLC) of legumes, in addition to defensins, a related family of peptides has evolved that encodes nodule specific, cysteine-rich NCR peptides that play essential roles in symbiosis ([Mergaert et al., 2003]; [Nallu et al., 2013]; [Montiel et al., 2017]). Legume plants in symbiosis with their rhizobium bacterium partner form nitrogen-fixing root nodules. The primary role of the NCR peptides is to convert bacteria into large polyploid, non-cultivable nitrogen-fixing bacteroids in the nodule cells ([Van de Velde et al., 2010]). This is a terminal differentiati ... || IRLC includes 56 genera and more than 4,000 species ([Duan et al., 2021]), and presumably all species have NCRs as it was confirmed in a few selected species. The genus Astragalus, with 2,300–2,500 members, has the highest number of species among angiosperms ([Duan et al., 2021]). In A. canadensis 108 NCRs have been identified ([Montiel et al., 2017]), while in the members of the Vicioid subclade 200–700 NCRs ([Ištvánek et al., 2014]; [Montiel et al., 2017]), thus, it is reasonable to assume that IRLC species in total express hundreds of thousand different NCRs, providing almost unlimited amou ...

[9] = tested on: Acinetobacter baumannii (ATCC 17978); test: microbe, parasite or virus in culture; type: cell-based; details: ATCC 17978, 3 h
In short: as §1

[10] = tested on: E. coli in vitro coupled transcription/translation; test: In vitro transcription/translation assay (GFP production); type: biochemical; details: RTS 100 E. coli HY Kit, 100 µM peptide or streptomycin, 2 technical parallels
Method: RTS 100 E. coli HY Kit (biotechrabbit Gmbh, Germany, catalog number: BR1400102) was used for the in vitro transcription/translation assay, according to the protocol. pIVEX2.3 control vector was used to produce GFP protein and to measure the translational efficiency. The amount of GFP produced was measured using a Hidex Plate Reader (Hidex Sense Microplate Reader with Plate Reader Software version 5064). […] All peptides and streptomycin were used at 100 µM concentration.
FIGURE 5 GFP production by E. coli in vitro coupled transcription-translation assay in the presence of 100 µM NCR or streptomycin. GFP fluorescence represents the average values of 2 technical parallels with their respective standard deviations (SD). *: p < 0.05, ****: p < 0.0001, as determined by one-way ANOVA.

Human red blood cells = test: Hemolysis assay; type: cell-based; details: 1 h at 37°C in TBS pH 7.2, peptides 0.4–100 μM, hemoglobin release OD560, relative to 0.5% Triton X-100 = 100%
Method: Human blood was purchased from the Regional Blood Centre in Szeged. The use of human blood for the hemolysis assay has been authorized by the Regional Hungarian Ethics Committee and approved by the Ethics Review Sector of DG RTD (European Commission) in connection with EK’s ERC AdG SymBiotics. The cells from 10 ml of EDTA-blood were centrifuged at 1,500 × g for 1 min and washed several times in TBS buffer (10 mM Tris, pH = 7.2, 150 mM NaCl) until the supernatant became colorless. The cells were then resuspended in 12 ml TBS buffer and 100 μl of this cell suspension was incubated for 1 h at 37°C in the presence of NCR peptides (0.4–100 μM). The cells were centrifuged at 1,500 g for 1 min and the supernatants were transferred into sterile 96-well plates and the hemoglobin release was measured at OD560 (Hidex Sense Microplate Reader with Plate Reader Software version 5064). […] The hemolytic activity was calculated as % of red blood cell disruption relative to the positive control sample lysed with detergent Triton X-100.
While AMPs can be very effective against microbes, they should not be toxic for human cells. […] Disruption of red blood cells was measured by spectrophotometry and compared to samples lysed with the detergent Triton X-100 (Supplementary Figure S2). […]

| Molecule | Ability to kill E. faecalis [1] | MBC Enterococcus faecalis [1] [µM] | MBC Escherichia coli [2] [µM] | MBC Listeria monocytogenes [3] [µM] | MBC Pseudomonas aeruginosa [4] [µM] | MBC Salmonella enterica [5] [µM] | Antibacterial spectrum over the eight tested bacterial strains [6] | Stability in serum by Western blot [7] | net charge [8] | MBC Acinetobacter baumannii [9] [µM] | Effect on GFP production (translation) [10] | Hemolytic activity on human red blood cells (Human red blood cells) |
| --- | --- | --- | --- | --- | --- | --- | --- | --- | --- | --- | --- | --- |
| ITISNSSFGRIVYWNCKTDKDCKQHRGFNFRCRSGNCIPIRR-OH (cysteines drawn unpaired) [NCR183] | able to kill | 25 | 6.25 | 6.25 | 6.25 | 25 | effective against five or four strains | stable in the presence of FBS |  |  |  |  |
| DRECDTDTECQKKFPGVNAHHLWCDNGNCVSYPK [NCR211, anionic M. truncatula NCR peptide] |  |  |  |  |  |  | inactive |  | −2.1 |  |  |  |
| CC[C@H](C)[C@H](N)C(=O)N[C@@H](CCCNC(=N)N)C(=O)N[C@H](C(=O)N[C@@H](Cc1c[nH]cn1)C(=O)N[C@@H](CS)C(=O)N[C@@H](CCCCN)C(=O)N[C@@H](CC(=O)O)C(=O)N[C@@H](CC(=O)O)C(=O)N[C@@H](Cc1ccccc1)C(=O)N[C@@H](CC(=O)O)C(=O)N[C@@H](CS)C(=O)N[C@H](C(=O)N[C@@H](CCC(=O)O)C(=O)N[C@@H](CC(N)=O)C(=O)N[C@@H](CCCNC(=N)N)C(=O)N[C@@H](CC(C)C)C(=O)N[C@@H](CCC(N)=O)C(=O)N[C@H](C(=O)NCC(=O)N[C@@H](CS)C(=O)N[C@@H](CCCNC(=N)N)C(=O)N[C@@H](CC(C)C)C(=O)N[C@@H](CCC(N)=O)C(=O)N[C@@H](CCCNC(=N)N)C(=O)N[C@@H](CCC(=O)O)C(=O)N[C@@H](CCCCN)C(=O)N1CCC[C@H]1C(=O)N[C@@H](CCCNC(=N)N)C(=O)N[C@@H](CS)C(=O)N[C@H](C(=O)N[C@@H](CC(N)=O)C(=O)N[C@@H](CC(C)C)C(=O)N[C@H](C(=O)N[C@@H](CS)C(=O)N[C@@H](CCCNC(=N)N)C(=O)N[C@@H](CS)C(=O)N[C@@H](CC(C)C)C(=O)N[C@@H](CCCNC(=N)N)C(=O)N[C@@H](CCCNC(=N)N)C(=O)O)C(C)C)C(C)C)C(C)C)[C@@H](C)CC)[C@@H](C)CC [NCR055] (H-IRIHCKDDFDCIENRLQVGCRLQREKPRCVNLVCRCLRR-OH; N-terminus assumed) | able to kill | 12.5 (≈ 59.5 µg/mL) | 6.25 (≈ 29.7 µg/mL) | 3.125 (≈ 14.9 µg/mL) | 6.25 (≈ 29.7 µg/mL) | 6.25 (≈ 29.7 µg/mL) | effective against six bacterial strains but not against S. aureus and K. pneumonia | stable in the presence of FBS |  | 3.125 (≈ 14.9 µg/mL) |  |  |
| [H]/N=C(/N)N[C@H]1[C@H](O)[C@@H](O)[C@H](O[C@@H]2O[C@@H](C)[C@](O)(C=O)[C@H]2O[C@@H]2O[C@@H](CO)[C@H](O)[C@@H](O)[C@@H]2NC)[C@@H](N/C(N)=N\[H])[C@@H]1O [streptomycin] |  |  |  |  |  |  |  |  |  |  | inhibited strongly |  |
| CC[C@H](C)[C@H](NC(=O)CNC(=O)[C@@H](NC(=O)[C@H](CCCNC(=N)N)NC(=O)[C@@H]1CCCN1C(=O)[C@H](CS)NC(=O)[C@H](CC(=O)O)NC(=O)[C@H](CCCCN)NC(=O)[C@H](CC(=O)O)NC(=O)[C@H](CCCCN)NC(=O)[C@@H](NC(=O)[C@H](CS)NC(=O)[C@H](CO)NC(=O)[C@H](Cc1c[nH]cn1)NC(=O)[C@H](CC(N)=O)NC(=O)[C@H](CCCNC(=N)N)NC(=O)[C@H](CC(C)C)NC(=O)[C@H](CC(N)=O)NC(=O)[C@@H](NC(=O)[C@@H](N)CO)[C@@H](C)CC)[C@@H](C)CC)C(C)C)C(=O)N[C@@H](CC(C)C)C(=O)N[C@@H](CC(N)=O)C(=O)N[C@H](C(=O)N[C@@H](CCCNC(=N)N)C(=O)N[C@@H](CS)C(=O)N[C@@H](CCCNC(=N)N)C(=O)N[C@@H](CCCCN)C(=O)NCC(=O)N[C@@H](Cc1ccccc1)C(=O)N[C@@H](CS)C(=O)N[C@H](C(=O)N[C@@H](Cc1c[nH]cn1)C(=O)N[C@H](C(=O)N[C@@H](CO)C(=O)O)[C@@H](C)CC)C(C)C)[C@@H](C)CC [MsNCR465] (H-SINLRNHSCIKDKDCPRVGILNIRCRKGFCVHIS-OH; N-terminus assumed) |  |  |  |  |  |  |  |  |  |  |  | mild hemolysis at 50 and 100 μM |
